Reference: patent US12545659B2, “IRAK degraders and uses thereof” (Kymera Therapeutics, Inc., priority 2019, dated 2026)

Target: T1, IRAK4 (Homo sapiens, UniProt Q9NWZ3)
T1 construct: endogenous in cells; host or cells: OCI-LY10
T1 sequence (Q9NWZ3 1-460): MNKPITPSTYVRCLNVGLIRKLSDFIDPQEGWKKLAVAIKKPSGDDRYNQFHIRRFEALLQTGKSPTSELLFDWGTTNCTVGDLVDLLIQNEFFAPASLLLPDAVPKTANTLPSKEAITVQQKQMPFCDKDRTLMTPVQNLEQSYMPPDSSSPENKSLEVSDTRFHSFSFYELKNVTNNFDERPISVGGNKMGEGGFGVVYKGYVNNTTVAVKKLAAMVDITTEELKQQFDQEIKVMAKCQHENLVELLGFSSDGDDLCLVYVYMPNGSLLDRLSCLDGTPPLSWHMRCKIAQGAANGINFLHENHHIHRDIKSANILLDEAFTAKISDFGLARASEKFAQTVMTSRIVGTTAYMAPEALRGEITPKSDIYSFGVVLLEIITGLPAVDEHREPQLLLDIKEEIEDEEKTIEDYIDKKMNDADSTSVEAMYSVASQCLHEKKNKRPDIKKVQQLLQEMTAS
Assay: IRAK4 MSD Degradation in OCI-LY10
Format: cell-based
Conditions: OCI-LY10 cells, 4 hrs incubation, read-out: IRAK4 degradation in OCI-LY10 at 4 hrs: DC50
Summary of the method: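 IRAK4 remaining in lysates was read by Meso Scale electrochemiluminescence sandwich (2H9 capture, Y279 plus SULFO-TAG detection). Cells were exposed 4 to 24 h at 37 °C to eight 3-fold dilutions from 1 to 10 μM final top; three-parameter logistic fit gave DC50.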

| DC50 | Compound |
| --- | --- |
| < 50 nM | CN(C[C@H]1CC[C@H](n2cc3cc(NC(=O)c4cccc(C(F)(F)F)n4)c(N4C[C@@H]5C[C@H]4CO5)cc3n2)CC1)C1CCN(c2cccc3c2n(C)c(=O)n3C2CCC(=O)NC2=O)CC1 (stereo partly drawn) [I-179] |
| 50 to 100 nM | COc1cc2nn([C@H]3CC[C@H](CN4CCC5(CC4)CC(CCc4cccc6c4n(C)c(=O)n6C4CCC(=O)NC4=O)C5)CC3)cc2cc1NC(=O)c1cccc(C(F)(F)F)n1 (stereo partly drawn) [I-259] |
| 50 to 100 nM | Cn1c(=O)n(C2CCC(=O)NC2=O)c2cccc(C#CCC3CCN(C[C@H]4CC[C@H](n5cc6cc(NC(=O)c7cccc(C(F)(F)F)n7)c(C(F)F)cc6n5)CC4)CC3)c21 (stereo partly drawn) [I-95] |
| < 50 nM | Cn1c(=O)n(C2CCC(=O)NC2=O)c2cccc(C3CCN(C[C@H]4CC[C@H](n5cc6cc(NC(=O)c7cnccn7)c(C(C)(C)O)cc6n5)CC4)CC3)c21 (stereo partly drawn) [I-320] |
| 50 to 100 nM | CN(C[C@H]1CC[C@H](n2cc3cc(NC(=O)c4cccc(C(F)(F)F)n4)c(C(F)F)cc3n2)CC1)C1CCC2(CC1)CC(Cc1cccc3c1n(C)c(=O)n3C1CCC(=O)NC1=O)C2 (stereo partly drawn) [I-278] |
| 50 to 100 nM | Cn1c(=O)n(C2CCC(=O)NC2=O)c2cccc(N3CCN(C[C@H]4CC[C@H](n5cc6cc(NC(=O)c7cccc(C(C)(C)F)n7)c(C(F)F)cc6n5)CC4)CC3)c21 (stereo partly drawn) [I-177] |
| < 50 nM | COc1cc2nn([C@H]3CC[C@H](CN4CC(c5ccc6c(c5)n(C)c(=O)n6C5CCC(=O)NC5=O)C4)CC3)cc2cc1NC(=O)c1cccc(C(C)(C)F)n1 (stereo partly drawn) [I-98] |
| 50 to 100 nM | COc1cc2nn([C@H]3CC[C@H](CN4C[C@H]5CC[C@@H](C4)N5c4cccc5c4n(C)c(=O)n5C4CCC(=O)NC4=O)CC3)cc2cc1NC(=O)c1cccc(C(F)(F)F)n1 (stereo partly drawn) [I-284] |
| 50 to 100 nM | Cn1c(=O)n(C2CCC(=O)NC2=O)c2cccc(CCCC3CCN(C[C@H]4CC[C@H](n5cc6cc(NC(=O)c7cccc(C(F)(F)F)n7)c(N7CCOCC7)cc6n5)CC4)CC3)c21 (stereo partly drawn) [I-135] |
| < 50 nM | COc1cc2nn([C@H]3CC[C@H](CN4CCC(CCNc5cccc6c5n(C)c(=O)n6C5CCC(=O)NC5=O)CC4)CC3)cc2cc1NC(=O)c1ccc(F)c(C)n1 (stereo partly drawn) [I-144] |
| < 50 nM | Cn1c(=O)n(C2CCC(=O)NC2=O)c2cccc(CCN3C[C@H]4CC[C@@H](C3)N4CC[C@H]3CC[C@H](n4cc5cc(NC(=O)c6cccc(C(F)(F)F)n6)c(C(C)(C)O)cc5n4)CC3)c21 (stereo partly drawn) [I-97] |
| < 50 nM | CN(C[C@H]1CC[C@H](n2cc3cc(NC(=O)c4cccc(C(F)(F)F)n4)c(C(F)F)cc3n2)CC1)C1CCN(c2ccc3c(c2)n(C)c(=O)n3C2CCC(=O)NC2=O)CC1 (stereo partly drawn) [I-106] |
| < 50 nM | CN(CCCC#Cc1cccc2c1n(C)c(=O)n2C1CCC(=O)NC1=O)C[C@H]1CC[C@H](n2cc3cc(NC(=O)c4cccc(C(F)(F)F)n4)c(C(C)(C)O)cc3n2)CC1 (stereo partly drawn) [I-228, N-(2-((1r,4r)-4-(((5-(1-(2,6-dioxopiperidin-3-yl)-3-methyl-2-oxo-2,3-dihydro-1H-benzo[d]imidazol-4-yl)pent-4-yn-1-yl)(methyl)amino)methyl)cyclohexyl)-6-(2-hydroxypropan-2-yl)-2H-indazol-5-yl)-6-(trifluoromethyl)picolinamide] |
| < 50 nM | COc1cc2nn([C@H]3CC[C@H](CN4CCC5(CC4)CC(Nc4cccc6c4n(C)c(=O)n6C4CCC(=O)NC4=O)C5)CC3)cc2cc1NC(=O)c1cccc(C(F)(F)F)n1 (stereo partly drawn) [I-162] |
| < 50 nM | Cn1c(=O)n(C2CCC(=O)NC2=O)c2cccc(CCC3CC4(CCN(C[C@H]5CC[C@H](n6cc7cc(NC(=O)c8cnn9cccnc89)c(C(F)F)cc7n6)CC5)CC4)C3)c21 (stereo partly drawn) [I-299] |
| 50 to 100 nM | COc1cccc(C(=O)Nc2cc3cn([C@H]4CC[C@H](CN5CCC6(CC5)CC(CCc5cccc7c5n(C)c(=O)n7C5CCC(=O)NC5=O)C6)CC4)nc3cc2C(C)(C)O)n1 (stereo partly drawn) [I-207] |
| < 50 nM | Cn1c(=O)n(C2CCC(=O)NC2=O)c2cccc(CCN3CC4(CCN(C(=O)[C@H]5CC[C@H](n6cc7cc(NC(=O)c8cccc(C(F)(F)F)n8)c(C(C)(C)O)cc7n6)CC5)CC4)C3)c21 (stereo partly drawn) [I-239] |
| 500 to 1000 nM | COc1cc2nn([C@H]3CC[C@H](CNc4cccc5c4n(C)c(=O)n5C4CCC(=O)NC4=O)CC3)cc2cc1NC(=O)c1cccc(C(F)(F)F)n1 (stereo partly drawn) [I-150] |
| < 50 nM | COc1cc2nn([C@H]3CC[C@H](CN4CCC(CCc5cccc6c5n(C)c(=O)n6C5CCC(=O)NC5=O)CC4)CC3)cc2cc1NC(=O)c1cccc(C(F)(F)F)n1 (stereo partly drawn) [I-242] |
| < 50 nM | COc1cc2nn([C@H]3CC[C@H](CN4CCN(CCc5cccc6c5n(C)c(=O)n6C5CCC(=O)NC5=O)CC4)CC3)cc2cc1NC(=O)c1cccc(C(F)(F)F)n1 (stereo partly drawn) [I-96] |

Same assay, conditions: OCI-LY10 cells, 24 hrs incubation, read-out: IRAK4 degradation in OCI-LY10 at 24 hrs: DC50

| DC50 | Compound |
| --- | --- |
| 50 to 100 nM | CN(C[C@H]1CC[C@H](n2cc3cc(NC(=O)c4cccc(C(C)(C)C)n4)c(C(C)(C)O)cc3n2)CC1)[C@H]1CC[C@H](Nc2cccc3c2C(=O)N(C2CCC(=O)NC2=O)C3=O)CC1 (stereo partly drawn) [I-236] |
| 50 to 100 nM | COc1cc2nn([C@H]3CC[C@H](CN4CCC5(CC4)CC(CNc4cccc6c4C(=O)N([C@H]4CCC(=O)NC4=O)C6=O)C5)CC3)cc2cc1NC(=O)c1cccc(C(F)(F)F)n1 [I-131, N-[2-[4-[[2-[[[2-[(3S)-2,6-dioxo-3-piperidyl]-1,3-dioxo-isoindolin-4-yl]amino]methyl]-7-azaspiro[3.5]nonan-7-yl]methyl]cyclohexyl]-6-methoxy-indazol-5-yl]-6-(trifluoromethyl)pyridine-2-carboxamide] |
| 50 to 100 nM | CC(C)(O)COc1cc2nn([C@H]3CC[C@H](CN4CCC5(CC4)CC(CCNc4cccc6c4C(=O)N(C4CCC(=O)NC4=O)C6=O)C5)CC3)cc2cc1NC(=O)c1cccc(C(C)(F)F)n1 (stereo partly drawn) [I-119] |
| 500 to 1000 nM | O=C1CCC(N2C(=O)c3cccc(NCCC4CC5(CCN(C[C@H]6CC[C@H](c7nc8cc(N9CCOCC9)c(NC(=O)c9cccc(C(F)(F)F)n9)cc8o7)CC6)CC5)C4)c3C2=O)C(=O)N1 (stereo partly drawn) [I-199] |
| 50 to 100 nM | CC1(C)OC(c2cccc(C(F)(F)F)n2)=Nc2cc3cn([C@H]4CC[C@H](CN5CCC6(CC5)CC(Nc5cccc7c5C(=O)N(C5CCC(=O)NC5=O)C7=O)C6)CC4)nc3cc21 (stereo partly drawn) [I-127, 4-[[7-[[4-[8,8-Dimethyl-6-[6-(trifluoromethyl)-2-pyridyl]pyrazolo[3,4-g][3,1]benzoxazin-2-yl]cyclohexyl]methyl]-7-azaspiro[3.5]nonan-2-yl]amino]-2-(2,6-dioxo-3-piperidyl)isoindoline-1,3-dione] |
| < 50 nM | CC(C)(O)c1cc2nn([C@H]3CC[C@H](CN4CCO[C@@H](CCNc5cccc6c5C(=O)N(C5CCC(=O)NC5=O)C6=O)C4)CC3)cc2cc1NC(=O)c1cccc(C(F)(F)F)n1 (stereo partly drawn) [I-65] |
| 100 to 500 nM | COc1cc2nn([C@H]3CC[C@H](CN(C)CCCO[C@H]4C[C@@H](Nc5cccc6c5C(=O)N(C5CCC(=O)NC5=O)C6=O)C4)CC3)cc2cc1NC(=O)c1cccc(C(F)(F)F)n1 (stereo partly drawn) [I-213] |
| < 50 nM | Cc1cccc(C(=O)Nc2cc3cn([C@H]4CC[C@H](CN(C)[C@H]5CC[C@H](Nc6cccc7c6C(=O)N(C6CCC(=O)NC6=O)C7=O)CC5)CC4)nc3cc2C(C)(C)O)n1 (stereo partly drawn) [I-47] |
| 500 to 1000 nM | COc1cc2nn([C@H]3CC[C@H](CN4CCC5(CC4)CC(CCNc4cccc6c4C(=O)N(C4CCC(=O)NC4=O)C6=O)C5)CC3)cc2cc1NC(=O)[C@H]1CCCCO1 (stereo partly drawn) [I-142] |
| 500 to 1000 nM | C[C@]1(CN2CCC3(CC2)CC(CCNc2cccc4c2C(=O)N(C2CCC(=O)NC2=O)C4=O)C3)Cc2cc(NC(=O)c3cccc(C(F)(F)F)n3)c(N3CCOCC3)cc2O1 (stereo partly drawn) [I-326, N-[(2R)-2-[[2-[2-[[2-(2,6-dioxo-3-piperidyl)-1,3-dioxo-isoindolin-4-yl]amino]ethyl]-7-azaspiro[3.5]nonan-7-yl]methyl]-2-methyl-6-morpholino-3H-benzofuran-5-yl]-6-(trifluoromethyl)pyridine-2-carboxamide] |
| 100 to 500 nM | COc1cc2nn([C@H]3CC[C@H](CN(C)[C@H]4CC[C@H](CNc5cccc6c5C(=O)N(C5CCC(=O)NC5=O)C6=O)CC4)CC3)cc2cc1NC(=O)c1cccc(C(C)(C)F)n1 (stereo partly drawn) [I-90] |
| 50 to 100 nM | CC(C)(C)c1cccc(C(=O)Nc2cc3cn([C@H]4CC[C@H](CN5CCC6(CC5)CC(Nc5cccc7c5C(=O)N(C5CCC(=O)NC5=O)C7=O)C6)CC4)nc3cc2C(C)(C)O)n1 (stereo partly drawn) [I-249] |
| < 50 nM | COc1cc2nn([C@H]3CC[C@H](CN4CC5(CC([C@H](C)CNc6cccc7c6C(=O)N(C6CCC(=O)NC6=O)C7=O)C5)C4)CC3)cc2cc1NC(=O)c1cccc(C(F)(F)F)n1 (stereo partly drawn) [I-332] |
| 50 to 100 nM | COc1cc2nn([C@H]3CC[C@H](CN4CCC5(CC4)CCN(c4cccc6c4C(=O)N(C4CCC(=O)NC4=O)C6=O)CC5)CC3)cc2cc1NC(=O)c1cccc(C(F)(F)F)n1 (stereo partly drawn) [I-220] |
| 100 to 500 nM | O=C1CCC(N2C(=O)c3ccc(NCC4CC5(C4)CN(C[C@H]4CC[C@H](n6cc7cc(NC(=O)c8cccc(S(F)(F)(F)(F)F)n8)c(N8CCCCC8)cc7n6)CC4)C5)cc3C2=O)C(=O)N1 (stereo partly drawn) [I-297] |

| Compound | DC50 |
| --- | --- |
| CN(CCCO[C@H]1C[C@H](Nc2cccc3c2C(=O)N(C2CCC(=O)NC2=O)C3=O)C1)C[C@@]1(C)Cc2cc(NC(=O)c3cccc(C(F)(F)F)n3)c(N3CCOCC3)cc2O1 (stereo partly drawn) [I-256, N-((2R)-2-(((3-((1r,3R)-3-((2-(2,6-Dioxopiperidin-3-yl)-1,3-dioxoisoindolin-4-yl)amino)cyclobutoxy)propyl)(methyl)amino)methyl)-2-methyl-6-morpholino-2,3-dihydrobenzofuran-5-yl)-6-(trifluoromethyl)picolinamide] | 500 to 1000 nM |
